Measured values from ChEMBL document CHEMBL3301361, “Experimental in vitro DMPK and physicochemical data on a set of publicly disclosed compounds”.

Assay: physchem
Conditions: octan-1-ol/water

Row | SMILES | logD (pH 7.4, LogD7.4) | logD (pH 7.4)
1 | Cc1cc(C)cc(-c2c(O)nc3cc(Cl)c(C(=O)Nc4ccncn4)cc3c2OCCC2CCCCN2)c1 (stereo unspecified) | 1.7 | –
2 | COc1ccc(Cl)c(C(=O)NCC23CC4CC(CC(C4)C2)C3)c1 | 4.39 | –
3 | CNC(=O)c1cccc(O[C@H]2C[C@H]3CC[C@@H](C2)N3Cc2ccccc2)c1 | – | 1.93
4 | CCOc1ccccc1-c1ccc(-c2nc3ccc(F)cc3c(C(=O)NCCOCCN)c2C)cc1 | 2.46 | –
5 | CCC(c1nc2ccsc2c(=O)n1Cc1ccccc1)N(CC1CCNCC1)C(=O)c1ccc(C)cc1 (stereo unspecified) | 1.33 | –
6 | O=C(N[C@H]1CN2CCC1CC2)c1ccc(-c2ccccn2)s1 | – | 0.7
7 | NC1(C(=O)N[C@@H](CCN2CCCCC2)c2ccc(Cl)cc2)CCN(c2ncnc3[nH]ccc23)CC1 | 2.4 | –
8 | O=C(Nc1ccc(N2CCOCC2)nc1)c1nnc(Nc2ccc(F)c(F)c2)o1 | 2.9 | –
9 | Cc1ccc(C(=O)c2cc(O)c(O)c([N+](=O)[O-])c2)cc1 [TOLCAPONE] | 0.74 | –
10 | Nc1nc(N)c(-c2ccc(NC(=O)C3CC3)cc2)c(COCc2ccccc2)n1 | 2.46 | –
11 | COc1cc(C(=O)Nc2ccc(N3CCOCC3)cc2)nc2c(N3CCN(C)CC3)cc(F)cc12 | 3.85 | –
12 | CCC(c1nc2ccoc2c(=O)n1Cc1ccccc1)N(CCCN)C(=O)c1ccc(C)cc1 (stereo unspecified) | 1.37 | –
13 | COc1ccc(-n2sc3ccccc3c2=O)cc1 | 3.02 | –
14 | C#CC(C)n1c(=O)c2c(-c3cncn3C)n(Cc3ccnc4ccc(Cl)cc34)nc2n(CC2CC2)c1=O (stereo unspecified) | 3.59 | –
15 | O=C(Nc1ccc(F)cc1F)c1cc(Cl)ccc1O | 3.6 | –
16 | COc1cc(N2CCN(C(C)=O)CC2)ccc1Nc1ncc(Cl)c(-c2cnc3cc(Cl)ccn23)n1 | 4.2 | –
17 | COc1ncc2ncc(=O)n(CCN3CCC(NCc4cc5c(cn4)OCCO5)CC3)c2n1 | -0.14 | –
18 | CC(N)Cc1c[nH]c2ccc(OCc3cccs3)cc12 (stereo unspecified) [BW-723C86] | – | 0.48
19 | C[C@H](CO)Nc1nc(SCc2cccc(F)c2F)nc2nccnc12 | 3.15 | –
20 | CCOC(=O)c1cc2ccc(O)cc2oc1=O | 1.2 | –
21 | CC(=O)NC[C@H]1CN(c2ccc(-n3cnc(C#N)c3)c(F)c2)C(=O)O1 | 1.51 | –
22 | CN1CCCN(C(c2ccccc2)c2ccc(Cl)cc2)CC1 (stereo unspecified) [HOMOCHLORCYCLIZINE] | 2.36 | –
23 | Cn1c(N)nc(CCc2ccccc2)cc1=O | 2 | –
24 | COc1ccc(-c2cc(O)c3cc(Cl)ccc3n2)cc1 | 2.7 | –

Row | SMILES | logD (pH 7.4, LogD7.4) | logD (pH 7.4)
25 | COc1ccc(-c2c(F)ccc3c(N)c(C(=O)NC4CC4)nnc23)c(OC)n1 | 3.37 | –
26 | Fc1cc2[nH]cnc2cc1Cl | 2.35 | –
27 | CC(=O)N[C@@H](C)c1ccc(Nc2ncc3cc(-c4ccncc4)ccc3n2)cc1 | 3.17 | –
28 | Oc1cc(Cl)cc(Cl)c1 | – | 3.58
29 | O=C(NCc1ccncn1)c1ccc(Oc2ccc(C#C[C@@]3(O)CN4CCC3CC4)cc2)cc1 | – | 1.77
30 | Cc1cn(C2CCCN(Cc3cccc(Oc4ccccc4)c3)C2)c(=O)[nH]c1=O (stereo unspecified) | 3.04 | –
31 | CC(C)(C)C(=O)Nc1ccc2c(c1)C(=O)C(=O)c1ccccc1-2 | 2.83 | –
32 | C=C(CC)C(=O)c1ccc(OCC(=O)O)c(Cl)c1Cl [ETHACRYNIC ACID] | 0.02 | –
33 | COc1cc(N2CCN(C(C)=O)CC2)ccc1Nc1ncc(Cl)c(-c2cnc3cc(F)ccn23)n1 | 3.7 | –
34 | Cc1ccc(-c2nnc(O)c3ccccc23)c(C)c1 | – | 3.41
35 | Cn1c(N)nc(CCc2ccc3ccccc3c2)cc1=O | 2.7 | –
36 | CC(C)NNC(=O)c1ccncc1 [IPRONIAZID] | 0.33 | –
37 | O=C(NNc1cccc(Cl)c1)c1cccnc1Cl | 1.87 | –
38 | Cc1c(O[C@H]2C[C@H]3CC[C@@H](C2)N3Cc2ccccc2)cccc1C(N)=O | – | 1.6
39 | COc1cc2c(Nc3c(Cl)ccc4c3OCO4)ncnc2cc1OCCCN1CCCCC1 | 2.05 | –
40 | O=C(Nc1cc(C(F)(F)F)cc(C(F)(F)F)c1)c1cnc(Cl)nc1C(F)(F)F | 1.8 | –
41 | Cc1ccnc(NS(=O)(=O)c2ccc(N)cc2)n1 [SULFAMERAZINE] | -0.51 | –
42 | COc1cc2nc(Nc3ccc([C@@H](C)NC(C)=O)cc3)ncc2cc1-c1ccncc1 | 3.11 | –
43 | CC(C)(c1cc(N2CCOCC2)nc(-c2cccc3[nH]ccc23)n1)S(C)(=O)=O | 2.65 | –
44 | Cc1ccc(C(=O)C(C)CN2CCCCC2)cc1 (stereo unspecified) [TOLPERISONE] | 1.65 | –
45 | COC(=O)c1c(C)[nH]c(C)c1C(=O)c1ccccc1Cl | 2.7 | –
46 | Cc1cc2[nH]c(=O)c(O)cc(=O)c2cc1C | 1.99 | –
47 | NC(=O)c1cc([N+](=O)[O-])cc([N+](=O)[O-])c1 [NITROMIDE] | – | 0.81
48 | CCNc1ccc(-c2ccccc2)n(CC(=O)NC(C(=O)C(F)(F)F)C(C)C)c1=O (stereo unspecified) | 2.37 | –

Row | SMILES | logD (pH 7.4, LogD7.4) | logD (pH 7.4)
49 | COc1ccc(/C=C2/CCc3ccccc3C2=O)cc1CN1CCOCC1 | 3.8 | –
50 | Oc1c(I)cc(I)c2cccnc12 [IODOQUINOL] | 2.19 | –
51 | COC(=O)CCCCCCC(=O)Nc1ccc2c(c1)C(=O)C(=O)c1ccccc1-2 | 2.9 | –
52 | O=c1c2ccccc2nc2n1CCO2 | 0.6 | –
53 | Cn1cncc1-c1c2c(=O)n(C)c(=O)n(CC3CC3)c2nn1Cc1ccnc2ccc(Cl)cc12 | 2.69 | –
54 | CC(C)C(NC(=O)Cn1c(-c2ccccc2)ccc(NC(=O)Cc2ccc(C(=O)O)cc2)c1=O)C(=O)C(F)(F)F (stereo unspecified) | 0.35 | –
55 | Cc1ccnc(NCc2ccc(Cl)cc2)c1 | – | 3.6
56 | CCCS(=O)(=O)c1ccc(C(CNS(=O)(=O)c2ccc(C(F)(F)F)cc2)N2CCCCCC2)cc1 (stereo unspecified) | 3.32 | –
57 | O=c1[nH]c2c(O)ccc([C@@H](O)CNCCc3ccc(CNCCc4ccccc4)cc3)c2s1 | 1.11 | –
58 | O=C(Cc1ccccc1)c1ccc(O)cc1O | 3.09 | –
59 | CCO/N=C(\c1ccc(Br)cc1)C1CCN(C2(C)CCN(C(=O)c3c(C)cc[n+]([O-])c3C)CC2)CC1 [ANCRIVIROC] | 2.14 | –
60 | COc1cccc2[nH]ncc12 | 2.1 | –
61 | CCN(CC)C(=O)c1ccc([C@H](c2cccc(NC(=O)C3CC3)c2)N2CCN(CCOC)CC2)cc1 | – | 2.35
62 | Cc1nc(N)c2nc(O)n(Cc3ccccc3)c2n1 | 2.04 | –
63 | C1=CCC(c2cc3ccccc3o2)CNC1 (stereo unspecified) | 1.94 | –
64 | CN1CCN(c2ccc(Nc3ccnc4ccccc34)cc2)CC1 | 1.3 | –
65 | c1cnc2cccnc2c1 | 0.89 | –
66 | COc1cc(F)ccc1-c1cncc(CNC2CCC2)n1 | 2.23 | –
67 | CN(C(=O)Cc1ccc(O)cc1)C1CCN(CCC(c2ccccc2)c2ccccc2)CC1 | 3.3 | –
68 | O=C(COCc1cscn1)N1CCN(c2ccc(Cl)cc2Cl)CC1 | 3.07 | –
69 | O=C1O[C@@H](Cn2nncc2F)CN1c1ccc(C2=CCS(=O)(=O)CC2)c(F)c1 | 3.54 | –
70 | O=C1CCC(=O)N1C(CCc1ccncc1)COc1ccc(-c2cccc([N+](=O)[O-])c2)cc1 (stereo unspecified) | 3.88 | –
71 | CCCSc1nc(NC[C@H]2CC[C@H](C(=O)O)CC2)ccc1C(=O)NC1CCCCC1 | 2.61 | –
72 | CCCNC(=O)c1nnc2c(-c3ncccn3)c(F)ccc2c1N | 2.07 | –

Row | SMILES | logD (pH 7.4, LogD7.4) | logD (pH 7.4)
73 | CC(C)C(NC(=O)Cn1c(-c2cccc(C(=O)O)c2)ccc(NC(=O)OCc2ccccc2)c1=O)C(=O)C(F)(F)F (stereo unspecified) | 1.2 | –
74 | COc1cc(N2CCN(C(C)=O)CC2)ccc1Nc1ncc(Cl)c(-c2cnc3ccc(N(C)C)cn23)n1 | 4.1 | –
75 | COc1cc2c(Nc3ccc(F)cc3F)c(C(N)=O)cnc2cc1N1CCN(C)CC1 | 1.75 | –
76 | NC(=O)c1ccc(=O)n(Cc2ccc(Cl)cc2Cl)c1 | 2.36 | –
77 | O=C(NC1Cc2ccccc2N(C[C@@H](O)CO)C1=O)c1cc2cc(Cl)sc2[nH]1 (stereo partly specified) | 3.37 | –
78 | Cc1cc(N)c2cc(NC(=O)CC(=O)Nc3ccc4nc(C)cc(N)c4c3)ccc2n1 | – | 1.35
79 | O=C1C=CC(=O)c2c(O)ccc(O)c21 [NAPHTHAZALIN] | – | 1.91
80 | COCCC(=O)N[C@H](C)c1ccc(Nc2ncc3cc(-c4ccncc4)ccc3n2)cc1 | 3.08 | –
81 | CC(C)(CS(=O)(=O)N1CCN(c2ccc(F)cc2)CC1)N(O)C=O | 1.07 | –
82 | CC(=O)Nc1ccc(-c2ccccc2)n(CC(=O)NC(C(=O)C(F)(F)F)C(C)C)c1=O (stereo unspecified) | 1.78 | –
83 | COc1cc2c(Nc3c(Cl)ccc4c3OCO4)ncnc2cc1OCC1CCN(C)CC1 | 1.83 | –
84 | CCC(c1nc2ccn(C)c2c(=O)n1Cc1ccccc1)N(CCCN)C(=O)c1ccc(C)cc1 (stereo unspecified) | 1.8 | –
85 | Cc1ccc2[nH]c(C(=O)N3CCN(C)CC3)cc2c1 | 2.22 | –
86 | NC1(C(=O)NC(CS(N)(=O)=O)c2ccc(Cl)cc2)CCN(c2ncnc3[nH]ccc23)CC1 (stereo unspecified) | 2.2 | –
87 | CNc1c(Br)cnc2[nH]c(-c3ccc(O)cc3)nc12 | 2.47 | –
88 | C[C@H]1O[C@@H](n2cnc3c(N)nc(OCC45CC6CC(CC(C6)C4)C5)nc32)[C@H](O)[C@@H]1O | 3.58 | –
89 | CN(C/C=C/C#CC(C)(C)C)Cc1cccc2ccccc12 [TERBINAFINE] | 2.83 | –
90 | COc1cc2ncc(C(N)=O)c(Nc3cc(C)ccc3F)c2cc1OC | 3.16 | –
91 | CCCCNc1ccc(C(=O)OCCN(C)C)cc1 [TETRACAINE] | 2.11 | –
92 | COc1ncc(C)cc1-c1cccc2c(N)c(C(=O)NC3CC3)nnc12 | 3.4 | –
93 | Cc1ccc(O)c(O)c1 | 1.37 | –
94 | Nc1cc2n[nH]c(=O)n2c2cc(-c3ccc[nH]3)ccc12 | 2.3 | –
95 | Cc1cc(O)ccc1N1C(=O)c2ccc(O)cc2C1=O | 2 | –
96 | CC(=O)Nc1ccc(S(=O)(=O)Nc2ccccn2)cc1 | 0.24 | –
